Test results as given in publication PMC11596563, “N-Aryl Benzimidazole and Benzotriazole Derivatives and Their Hybrids as Cytotoxic Agents: Design, Synthesis and Structure–Activity Relationship Studies” (Molecules, 2024).

How the values were obtained:
A549 = assay: MTT test, cytotoxic effect; type: cell-based; details: Homo sapiens, 24 h treatment, 0.1 to 100 µM, concentration that causes 50% cell death
Protocol: (§1) At the first stage of biological testing, we studied the effect of the synthesized compounds on the survival of cells of both tumoral and normal origin. […] In our work, the cytotoxic profile of the synthesized molecules was assessed using the MTT test, based on the ability of a colorless tetrazolium salt (3-[4,5-dimethylthiazol-2-yl]-2,5-diphenyltetrazolium bromide, MTT) to be reduced to colored formazan in the presence of the mitochondrial enzymes of living cells. For this purpose, a number of cell lines of tumoral origin (SH-SY5Y, A549, MCF-7 and SW-480), as well as normal origin (Hek-293), were used.
(§2) For the experiments, we used tumor cell cultures SH-SY5Y, human neuroblast-like cells, A549, human lung adenocarcinoma, MCF-7, human mammary adenocarcinoma, SW-480 and human colorectal adenocarcinoma, as well as cells of normal origin obtained from human embryonic kidneys, Hek-293.
(§3) All cells were cultured in the Dulbecco Modified Eagle’s Medium (DMEM) with a high glucose content, 10% fetal bovine serum and 1% penicillin-streptomycin as an antibiotic, in a moist incubator with 5% CO2 at 37°C.
(§4) To measure cellular metabolic activity, a colorimetric analysis was performed using the MTT reagent (3-(4,5–dimethylthiazol-2-yl)-2,5-diphenyltetrazolium bromide), which is an inhibitor of viable cells [73, 74].
(§5) • Briefly, cells in the logarithmic growth phase were digested and resuspended to adjust the cell density. The cells were then seeded in 96-well plates at a density of 10,000 cells per well. After 24 h of the incubation of the cells under the standard conditions described above (for the purpose of cell adhesion), the cells were treated with the synthesized compounds at different concentrations (0.1 to 100 µM) or a vehicle alone as a control (1% DMSO) for 24 h. After the incubation time of the cells with synthesized compounds, 5 mg/mL of MTT was added to the cells and incubated for 2 h at 37 °C. Next, the supernatant was discarded; after that, the formazan crystals were dissolved in a DMSO and the absorbance of each well was measured at 570 nm using a multifunctional microplate reader, Cytation3 (Biotech Tools Inc., Winooski, USA).

MCF-7 = assay: MTT test, cytotoxic effect; type: cell-based; details: Homo sapiens, MCF7, 24 h treatment, 0.1 to 100 µM, concentration that causes 50% cell death
Protocol: as §1, §2, §3, §4, §5

SW-480 = assay: MTT test, cytotoxic effect; type: cell-based; details: Homo sapiens, SW480, 24 h treatment, 0.1 to 100 µM, concentration that causes 50% cell death
Protocol: as §1, §2, §3, §4, §5

[1] = MTT test, cytotoxic effect on cells of normal origin; type: cell-based, human; details: human, Hek-293 cells (normal origin), 24 h treatment, 0.1 to 100 µM, normal cells, concentration that causes 50% cell death
Protocol: as §1, §2, §3, §4, §5

[2] = system: all the tested cell lines (SH-SY5Y, A549, MCF-7, SW-480, Hek-293); assay: MTT test, summary over all tested cell lines; type: cell-based, human; details: MTT, range of concentrations studied (0.1 to 100 µM)
Protocol: as §1
(§6) For the experiments, we used tumor cell cultures SH-SY5Y, human neuroblast-like cells, A549, human lung adenocarcinoma, MCF-7, human mammary adenocarcinoma, SW-480 and human colorectal adenocarcinoma, as well as cells of normal origin obtained from human embryonic kidneys, Hek-293. The cell lines were obtained from the collection of the Institute of Cytology, Russian Academy of Sciences (St. Petersburg, Russia).
as §3, §4
(§7) • Briefly, cells in the logarithmic growth phase were digested and resuspended to adjust the cell density. The cells were then seeded in 96-well plates at a density of 10,000 cells per well. […] Next, the supernatant was discarded; after that, the formazan crystals were dissolved in a DMSO and the absorbance of each well was measured at 570 nm using a multifunctional microplate reader, Cytation3 (Biotech Tools Inc., Winooski, USA).

SH-SY5Y = assay: cells; details: Homo sapiens, 24 h, read-out: IC50 of the cytotoxic effect, SH-SY5Y
Protocol: as §1, §2, §3, §4, §5

[3] = MTT test, summary over all tested cell lines; type: cell-based, human; details: human; all cells, including those of normal origin, Hek-293; read-out: IC50 values of the cytotoxic effect, range over all cells
Protocol: as §1, §6, §3, §4, §7

[4] = system: Fe(II)-induced lipid peroxidation (LPO) of rat brain homogenate; assay: Fe(II)-induced lipid peroxidation, modified TBARS test; type: biochemical; details: Fe(II) 500 μM, rat brain homogenate 2 mg/mL; for IC50: 1 to 300 μM, read-out: IC50 of the lipid peroxidation inhibitory effect; for decrease in the level of malondialdehyde: compounds at 100 μM
Protocol: In our work, the antioxidant status of the compounds was determined by their ability to influence the process of Fe(II)-induced lipid peroxidation (LPO) of rat brain homogenate (2 mg/mL). The effect of the substances on LPO was studied using a modified version of the TBA test in a plate format. This test is based on the reaction of 2-thiobarbituric acid with intermediate LPO products, resulting in the formation of a colored trimethine complex, the main role in the formation of which belongs to malondialdehyde. […] This was expressed in a decrease in the level of malondialdehyde in the system by 70, 79 and 71%, respectively, tending to the values of the well-known antioxidant Trolox. Additionally, the IC50 values of the lipid peroxidation inhibitory effect were calculated for these molecules, the values of which are presented in Figure 2B.
To obtain rat brain homogenate, an animal previously anesthetized in a CO2 chamber was decapitated using a guillotine. The brain was homogenized in a buffer containing KCl (120 mM) and HEPES (20 mM), pH = 7.4 at 4 ° C and centrifuged at 1500 g to obtain a supernatant.
The intensity of the lipid peroxidation of the rat brain homogenate was evaluated using a modified TBARS test. […] In the wells of the negative control, the Fe(II) was replaced with water; in samples with a positive control, a solvent was introduced instead of the studied compounds.
At the end of incubation, a TBA reagent ([…] thiobartituric and 1% trichloroacetic acids dissolved in 0.25 N HCl) was added to each well and heated at 90 °C for 90 min.

A549 cells = assay: Wound-healing assay (scratch test); type: cell-based, human; details: 1 μM; for migration capacity, decrease in the scratch width vs control: 24 h after the damage
From the text: It is also well known that migration and proliferation of cancer cells are key processes involved in the metastatic cascade of malignant neoplasms. In turn, the ability of therapeutic agents to inhibit these processes is considered a promising property of antitumor agents. In this regard, in order to assess the possible antimetastatic potential of cytotoxic diphenylamines 6b, c and d, we analyzed the effect of the substances on the migration and proliferation of tumor cells A549 in a scratch test.
Based on a preliminary series of experiments, 1 μM was chosen as the concentration used in this test, excluding the intrinsic cytotoxic effect of the substances. […] Thus, the data obtained 24 h after the damage was applied allowed us to evaluate the migration capacity of the cells, minimizing the contribution of cell proliferation.
The migration activity of A549 cells was determined by the wound-healing assay (scratch test). To do this, cells (15,000 cells per well) were seeded in a 96-well plate and cultured under the standard conditions described above. After 24 h of incubation, when the cells became 90% confluent, the medium was selected and an identical scratch wound across the center of each well was made by a 200 µL pipette tip.
To remove detached cells, the cell monolayer was washed twice with PBS; after that, the growth media and test compounds at 1 µM (or 1% DMSO as a solvent) were added to each well. A phase contrast microscope at a ×40 magnification was used to take photomicrographs after making the wound and then 24 h, 48 h and 72 h later.
The analysis of the obtained images was calculated using the open-source program ImageJ [80] and a special module: Wound_healing_size_tool.

Row | Compound | IC50 (A549) [µM] | IC50 (MCF-7) [µM] | IC50 (SW-480) [µM] | IC50 at 24 h [1] [µM] | toxic effect on the tested cell lines [2] | melting point [°C] | IC50 (SH-SY5Y) [µM] | IC50 at 24 h [3] [µM] | IC50 [4] [µM] | decrease in the level of malondialdehyde [4] [%] | unhealed defect area remaining from the original vs control (A549 cells; 48 and 72 h) | migration capacity, decrease in the scratch width vs control (A549 cells) | proliferation coefficient of cells vs control (A549 cells; A549)
1 | Nc1cc(C(F)(F)F)ccc1Nc1cc(C(F)(F)F)ccc1-n1cnc2ccccc21 [6a, N-[2-(1H-benzimidazol-1-yl)-5-(trifluoromethyl)phenyl]-2-amino-4-(trifluoromethyl)aniline] | ≥ 100 | ≥ 100 | ≥ 100 | ≥ 100 | not toxic | 205 to 207 | ≥ 100 | – | – | – | – | – | –
2 | Nc1cc(C(F)(F)F)ccc1Nc1cc(C(F)(F)F)ccc1-n1nnc2ccccc21 [6b, N-[2-(1H-benzotriazol-1-yl)-5-(trifluoromethyl)phenyl]-2-amino-4-(trifluoromethyl)aniline] | 26.28 ± 0.02 | 23.29 ± 0.12 | 25.09 ± 0.24 | 22.4 ± 0.41 | – | 170 to 173 | 25.98 ± 0.17 | 22 to 26 | 1.68 ± 0.08 | 70 | significantly increase | did not find any differences | significant decrease
3 | Nc1cc(C(F)(F)F)ccc1Nc1cc(Cl)ccc1-n1nnc2ccccc21 [6d, N-[2-(1H-benzotriazol-1-yl)-5-chlorophenyl]-2-amino-4-(trifluoromethyl)aniline] | 41.4 ± 0.79 | 33.8 ± 0.64 | 40.38 ± 0.01 | 41.39 ± 0.05 | – | 191 to 194 | 31.56 ± 0.07 | 31 to 41 | 2.4 ± 0.05 | 71 | – | did not find any differences | –
